Laboratory results published in patent publication US5776720A, “Assay reagent” (priority 1995, dated 1998).

What was measured:
Type in all cases: cell-based, human
Set-up in all cases: unit not given here
Conditions in all cases: normal donors
[1] = tested on: monocytes; test: Normal leukocyte enzyme activity (Table 3A), monocytes
From the text: (§1) The measured fluorescence intensity can be converted from mean channel fluorescence (in peak or integrated mode) to MESF (molecules of equivalent soluble fluorochrome, Flow Cytometry Standards Corp. , San Juan, Puerto Rico) or International Units of hydrolysis per cell. A normal range of enzyme activity is established by assaying males and females in sufficient quantity to characterize the population levels statistically.
(§2) A normal in house adult donor pool was drawn, recording sex and determining that no known disease state was present at the time of sample draw. Criteria for rejecting samples included patients under medication, patients with infection or inflammation of any type, colds and flu as well as any known medical illness such as cancer, heart ailment and high blood pressure. A donor list of 75 patients has been developed and a mean and 2 sd range established. A subgroup of "super normals" was developed from this list by examining the 75 patients to determine which group falls closest to the mean for all enzymes in all cell types tested. These patients were used as the "wellness index" or best group of "normalcy" patients. If a study required the use of children or newborns then this same format was used to develop a data base for these age groups.

[2] = tested on: granulocytes; test: Normal leukocyte enzyme activity (Table 3A), granulocytes
From the text: as §1, §2

[3] = tested on: lymphocytes; test: Normal leukocyte enzyme activity (Table 3A), lymphocytes
From the text: as §1, §2

Molecule	NORMAL LEUKOCYTE ENZYME ACTIVITY, MONOS Mean [1]	NORMAL LEUKOCYTE ENZYME ACTIVITY, GRANS Mean [2]	NORMAL LEUKOCYTE ENZYME ACTIVITY, LYMPHS Mean [3]
C[C@H](NC(=O)[C@@H](N)CCCCN)C(=O)Nc1ccc2c(c1)Oc1cc(NC(=O)[C@H](C)NC(=O)[C@@H](N)CCCCN)ccc1C21OC(=O)c2ccccc21 [KA--M, (Lys-Ala)2 Rho 110]	8.74	1.74	0.55
CC(C)C[C@H](NC(=O)CN)C(=O)Nc1ccc2c(c1)Oc1cc(NC(=O)[C@H](CC(C)C)NC(=O)CN)ccc1C21OC(=O)c2ccccc21 [GL, (H Gly--Leu)2 Rho 110.2FTA]	41.78	29.16	9.42
C[C@@H](O)[C@H](NC(=O)OCc1ccccc1)C(=O)N1CCC[C@H]1C(=O)Nc1ccc2c(c1)Oc1cc(NC(=O)[C@@H]3CCCN3C(=O)[C@@H](NC(=O)OCc3ccccc3)[C@@H](C)O)ccc1C21OC(=O)c2ccccc21 [Z--TP6.5, (carbobenzyloxycarbonyl-Thr-Pro)2 Rho 110 (pH 6.5)]	49.69	58.05	21.97
CCCCC(=O)Oc1ccc2c(c1)Oc1cc(OC(=O)CCCC)ccc1C21OC(=O)c2ccccc21 [DIVAL 6.5, FL(valerate)2]	184.51	92.81	33.13
N[C@@H](CC(=O)O)C(=O)Nc1ccc2c(c1)Oc1cc(NC(=O)[C@@H](N)CC(=O)O)ccc1C21OC(=O)c2ccccc21 [ASP, (H--L--Asp)2 --Rho 110.2TFA]	0.66	0.45	0.26
CCCCCCCCCCCCCCCC(=O)Oc1ccc2c(c1)Oc1cc(OC(=O)CCCCCCCCCCCCCCC)ccc1C21OC(=O)c2ccccc21 [DIPAL 7.5, FL(palmitate)2]	0.30	0.14	0.14
O=C(CCl)Oc1ccc2c(c1)Oc1cc(OC(=O)CCl)ccc1C21OC(=O)c2ccccc21 [CHLOAC, FL(chloroacetate)2]	7.33	6.48	2.49
C[C@H](NC(=O)[C@@H](N)CCCCN)C(=O)Nc1ccc2c(c1)Oc1cc(NC(=O)[C@H](C)NC(=O)[C@@H](N)CCCCN)ccc1C21OC(=O)c2ccccc21 [KA, (Lys-Ala)2 Rho 110]	39.35	29.15	11.47
NC(=O)CC[C@H](N)C(=O)N[C@@H](CO)C(=O)Nc1ccc2c(c1)Oc1cc(NC(=O)[C@H](CO)NC(=O)[C@@H](N)CCC(N)=O)ccc1C21OC(=O)c2ccccc21 [QS, (H--L--Gln--Ser)2 Rho 110.2TFA]	10.66	4.67	1.70
(carbobenzyloxycarbonyl-Gly-Pro)2 Rho 110 (modified) [Z--GP--M]	119.81	130.62	53.74
O=C1OC2(c3ccc(NC(=O)[C@@H]4CCCN4)cc3Oc3cc(NC(=O)[C@@H]4CCCN4)ccc32)c2ccccc21 [PRO, (H--L--Pro)2 --Rho 110.2TFA]	6.83	9.19	1.70
CCC(=O)Oc1ccc2c(c1)Oc1cc(OC(=O)CC)ccc1C21OC(=O)c2ccccc21 [DIPRO 6.5, FL(propionate)2]	441.65	349.18	86.11
CC(=O)Oc1ccc2c(c1)Oc1cc(OC(C)=O)ccc1C21OC(=O)c2ccccc21 [DIACET 6.5, Fluorescein (acetate)2, reference compound]	534.00	408.88	109.89
CC(=O)Oc1ccc2c(c1)Oc1cc(OC(C)=O)ccc1C21OC(=O)c2ccccc21 [DIACET 7.5, Fluorescein (acetate)2, reference compound]	432.78	348.01	89.30
CCCC(=O)Oc1ccc2c(c1)Oc1cc(OC(=O)CCC)ccc1C21OC(=O)c2ccccc21 [DIBUT 6.5, FL(butyrate)2]	10.37	6.43	4.08
O=C(NCC(=O)N1CCC[C@H]1C(=O)Nc1ccc2c(c1)Oc1cc(NC(=O)[C@@H]3CCCN3C(=O)CNC(=O)OCc3ccccc3)ccc1C21OC(=O)c2ccccc21)OCc1ccccc1 [Z--GP, (carbobenzyloxycarbonyl-Gly-Pro)2 Rho 110]	225.10	240.99	107.56
C[C@H](N)C(=O)Nc1ccc2c(c1)Oc1cc(NC(=O)[C@H](C)N)ccc1C21OC(=O)c2ccccc21 [ALA, (Ala)2 Rho 110]	172.33	149.02	75.85
CC(C)C[C@H](NC(=O)[C@@H](N)CC(C)C)C(=O)N[C@@H](CCCNC(=N)N)C(=O)Nc1ccc2c(c1)Oc1cc(NC(=O)[C@H](CCCNC(=N)N)NC(=O)[C@H](CC(C)C)NC(=O)[C@@H](N)CC(C)C)ccc1C21OC(=O)c2ccccc21 (stereo partly shown) [LLR, (H--L Leu--Leu--Arg)2 Rho 110.4TFA]	54.32	9.46	4.09
CC(C)[C@H](N)C(=O)N[C@@H](CCCCN)C(=O)Nc1ccc2c(c1)Oc1cc(NC(=O)[C@H](CCCCN)NC(=O)[C@@H](N)C(C)C)ccc1C21OC(=O)c2ccccc21 [VK, (Val-Lys)2 Rho 110]	20.38		1.87
CCCCCCC(=O)Oc1ccc2c(c1)Oc1cc(OC(=O)CCCCCC)ccc1C21OC(=O)c2ccccc21 [DIHEP 6.5, FL(heptanoate)2]	32.25	18.57	9.17
(Val-Lys)2 Rho 110 (modified) [VK--M]	43.37	4.31	2.05
CC(C)[C@H](N)C(=O)N[C@@H](CO)C(=O)Nc1ccc2c(c1)Oc1cc(NC(=O)[C@H](CO)NC(=O)[C@@H](N)C(C)C)ccc1C21OC(=O)c2ccccc21 [VS, (H--L--Val--Ser)2 Rho 110.2TFA]	19.61	8.27	3.81
CCCCCCC(=O)Oc1ccc2c(c1)Oc1cc(OC(=O)CCCCCC)ccc1C21OC(=O)c2ccccc21 [DIHEP 7.5, FL(heptanoate)2]	36.15	20.41	9.73
CCC(=O)Oc1ccc2c(c1)Oc1cc(OC(=O)CC)ccc1C21OC(=O)c2ccccc21 [DIPRO 7.6, FL(propionate)2]		429.17	96.34
